Results taken from patent US10330673B2, “Fluorescent chemical sensor for biological amines” (The Curators of the University of Missouri, priority 2013, dated 2019).

Key:
[1] = sensor of U.S. Pat. No. 7,977,120 B2; quenched by catechol group; cited from earlier work
[2] = Fluorescence titration of sensor with dopamine; type: binding; settings: Table 2, analyte dopamine; for Ka: pH 5.0, 37° C.
Experimental: (§1) Fluorescence spectra were recorded on a Shimadzu RF-5301 PC spectrofluorometer at 37° C. A 1 mg/mL stock solution of I-2 in DMSO was prepared. A stock solution of I-2 in buffer (1×10^−5 M, 25 mM HEPES, 50 mM Na2S2O3, pH=5.0) was prepared. Norepinephrine, dopamine, epinephrine, and glutamate stock solutions were prepared by separately dissolving the analytes at the concentration to be used in the titration with the buffered stock solution of I-2 (thus avoiding dilution of I-2 during the experiment). I-2 was titrated with aliquots of analyte solution. The sensor was excited at 488 nm with slit widths of 5 nm.
(§2) Fluorescence spectra were recorded on a Shimadzu RF-5301 PC spectrofluorometer at 37° C. A separate 1 mg/mL stock solution of each coumarin-3-aldehyde derivative in DMSO was prepared. An aqueous stock solution of each derivative (10 μM) in buffer (25 mM HEPES, 50 mM Na2S2O3, pH=5.0) was prepared. Norepinephrine, dopamine, glutamate, and epinephrine stock solutions were prepared by separately dissolving the solid analytes at the concentration to be used in the titration with the buffered stock solutions described above and thus, avoiding dilution of the sensor during the experiment. The benzene-based NS521 derivatives were excited at 488 nm. The thiophene-based derivatives were excited at 515 nm.

[3] = Fluorescence titration of sensor with glutamate; type: binding; settings: for F.E. / Ka: Table 2, analyte glutamate; for Ka: pH 5.0, 37° C.
Experimental: as §1, §2

[4] = Fluorescence titration of sensor with norepinephrine; type: binding; settings: Table 2, analyte norepinephrine; for Ka: pH 5.0, 37° C.
Experimental: as §1, §2

[5] = Solubility in buffer for spectroscopic studies; type: physicochemical; settings: 25 mM HEPES, 50 mM Na2S2O3, pH 5.0; DMSO cosolvent required
Experimental: Steady-state fluorescence spectroscopic studies were performed using a Horiba Scientific Fluorolog-3 Model FL3C-111 spectrofluorometer and data was collected and analyzed using HJY FluorEssence™ 3.5.1.20 software package. UV-visible spectra were obtained on a Varian Cary 1E UV-visible spectrophotometer. A stock solution of each benzene- or thiophene-based coumarin-3-aldehyde derivative (1 μM) in buffer (25 mM HEPES, 50 mM Na2S2O3, pH=5.0) was prepared. Each solution contained 1% (v/v) DMSO as a cosolvent except as noted. The slit width was 2 nm for both excitation and emission. The bound benzene- and thiophene-coumarin-3-aldehyde derivatives contained 500 mM glutamate (pH=5.0).

[6] = system: epinephrine-enriched chromaffin cells; assay: Live-cell confocal imaging with NS539, epinephrine-enriched cells; type: cell-based, bovine; settings: 10 μM
Experimental: (§3) Norepinephrine- and epinephrine-secreting chromaffin cells were isolated from bovine adrenal glands, separately incubated with NS539 (2b, 10 μM), and imaged using confocal fluorescence microscopy. The live cells were imaged at 458 nm which would excite any potential unbound sensor and at 514 nm which would excite the bound sensor. […] The ratio of the mean corrected total cell fluorescence intensity of norepinephrine- over epinephrine-enriched cells was approximately 27-fold (FIG. 19G).
(§4) Chromaffin cells were prepared as previously described. Approximately 3 mL of each culture media containing suspended epinephrine- and norepinephrine-enriched cells was centrifuged at 1,000 rpm for 5 min. The pellets were suspended in 2 mL Dulbecco's Modified Eagle Medium (DMEM). NS539 was added (10 μM final concentration) and each cell suspension containing sensor incubated at 37° C. for 30 min. The cells were centrifuged, the supernatant removed, and washed twice with PBS buffer. Next, the cells were taken up into 6 mL standard cell bath solution and plated onto No. 1.5 γ-irradiated poly-D-lysine coated 35 mm glass-bottom dishes (MatTek Corporation). The cells incubated on the dishes 37° C. with 5% CO2 for 1 hr prior to imaging to promote adhesion. Live cell imaging studies were performed using a Zeiss LSM 510 META laser scanning confocal microscope (Carl Zeiss Microscopy, LLC) equipped with a C-Apochromat 63x/1.2 water immersion objective lens (Carl Zeiss Microscopy, LLC). The excitation wavelengths were 458 nm and 514 nm (pixel time: 6.4 μs, detector gain: 845, amplifier gain: 1.00, amplifier offset: −0.05, pinhole: 328 μm). Image acquisition was performed using Zeiss AIM 4.2 software package (Carl Zeiss Microscopy, LLC). To compare the fluorescence intensities of the norepinephrine- vs. the epinephrine-enriched cells, the mean corrected total cell fluorescence intensities were obtained using ImageJ (National Institute of Health).

[7] = system: norepinephrine-enriched chromaffin cells; assay: Live-cell confocal imaging with NS539, norepinephrine-enriched cells; type: cell-based, bovine; settings: 10 μM
Experimental: as §3, §4

[8] = 1.0 μM in water (pH 7); fluorescence standard; cited from earlier work
[9] = benzene-based compounds I, excited at 488 nm
[10] = excitation at 514 nm (bound sensor)
[11] = ± standard deviation (n=6), 535-590 nm bandpass filter
[12] = thiophene-based compounds II, excited at 515 nm

Compound	F.E. [2, 9]	Ka [2, 9] [M⁻¹]	F.E. [3, 9]	Ka [3, 9] [M⁻¹]	F.E. [4, 9]	Ka [4, 9] [M⁻¹]	also measured
CCN(CC)c1ccc2c(CCCCCN(C)Cc3ccccc3B(O)O)c(C=O)c(=O)oc2c1 ['120 sensor]	–	–	–	–	–	–	mode of fluorescence response [1]: turn-off mode
CCN(CC)c1ccc2c(-c3ccccc3)c(C=O)c(=O)oc2c1 [Compound I-1]	3.23	68.07	10.45	9.43	6.62	68.68	–
CCN(CC)c1ccc2c(-c3ccc(OC)c(OC)c3)c(C=O)c(=O)oc2c1 [Compound I-3]	2.69	177.46	6.56	10.21	4.11	107.17	–
CCN(CC)c1ccc2c(-c3cc(OC)c(OC)c(OC)c3)c(C=O)c(=O)oc2c1 [Compound I-4]	1.62	205.13	5.57	10.25	2.56	159.08	selectivity of fluorescent response for glutamate over dopamine and norepinephrine ([3]; series 1 sensors, in words): best glutamate-selective sensor
CCN(CC)c1ccc2c(-c3cccc(C)c3)c(C=O)c(=O)oc2c1 [Compound I-5]	3.17	74.13	9.97	9.17	6.59	68.40	–
CCN(CC)c1ccc2c(-c3ccc(OC)c(C)c3)c(C=O)c(=O)oc2c1 [Compound I-6]	2.41	192.05	6.36	10.25	3.89	135.98	–
CCOC(=O)c1ccc(-c2c(C=O)c(=O)oc3cc(N(CC)CC)ccc23)cc1 [Compound I-7]	1.13	107.45	4.68	6.95	1.79	81.50	solubility in buffer [5]: solubility issues
CCN(CC)c1ccc2c(-c3ccc(OC)c(F)c3)c(C=O)c(=O)oc2c1 [Compound I-8]	3.06	92.94	9.31	8.96	6.36	70.18	–
CCN(CC)c1ccc2c(-c3ccc(-c4ccccc4)cc3)c(C=O)c(=O)oc2c1 [Compound I-9]	1.62	203.29	6.22	13.84	2.57	148.79	solubility in buffer [5]: solubility issues
CCN(CC)c1ccc2c(-c3cccc4ccccc34)c(C=O)c(=O)oc2c1 [Compound I-10]	2.86	170.10	6.81	10.08	4.30	103.56	–
CCN(CC)c1ccc2c(-c3ccc(SC)cc3)c(C=O)c(=O)oc2c1 [Compound I-11]	3.10	87.11	9.76	8.40	6.46	68.82	–
CCN(CC)c1ccc2c(-c3cccs3)c(C=O)c(=O)oc2c1 [II-1]	–	–	–	–	–	–	cell fluorescence, confocal microscopy ([6]; excitation at 458 nm (unbound sensor)): no fluorescence; cell fluorescence, confocal microscopy [6, 10]: marginal fluorescence response; mean corrected total cell fluorescence intensity [6, 11]: 1.86±0.98; F.E. [2, 12]: 25.42; Ka [2, 12]: 43.55 M⁻¹; ratio of mean corrected total cell fluorescence intensity of norepinephrine- over epinephrine-enriched cells [7]: approximately 27 fold; cell fluorescence, confocal microscopy [7, 10]: strong punctate fluorescence; mean corrected total cell fluorescence intensity [7, 11]: 51.0±2.6; cell fluorescence, confocal microscopy ([7]; λex = 458 nm (unbound sensor)): no measurable fluorescence response; F.E. [3, 12]: 57.17; Ka [3, 12]: 7.32 M⁻¹; F.E. [4, 12]: 47.95; Ka [4, 12]: 65.15 M⁻¹
CCN(CC)c1ccc2c(-c3ccc(C)s3)c(C=O)c(=O)oc2c1 [II-2]	–	–	–	–	–	–	F.E. [2, 12]: 22.18; Ka [2, 12]: 54.61 M⁻¹; F.E. [3, 12]: 47.67; Ka [3, 12]: 6.11 M⁻¹; F.E. [4, 12]: 32.35; Ka [4, 12]: 58.72 M⁻¹
CCN(CC)c1ccc2c(-c3cc(C)cs3)c(C=O)c(=O)oc2c1 [II-3]	–	–	–	–	–	–	F.E. [2, 12]: 23.41; Ka [2, 12]: 51.10 M⁻¹; F.E. [3, 12]: 51.15; Ka [3, 12]: 7.40 M⁻¹; F.E. [4, 12]: 38.35; Ka [4, 12]: 63.65 M⁻¹
CCN(CC)c1ccc2c(-c3ccc(Cl)s3)c(C=O)c(=O)oc2c1 [II-4]	–	–	–	–	–	–	F.E. [2, 12]: 12.39; Ka [2, 12]: 83.96 M⁻¹; F.E. [3, 12]: 33.96; Ka [3, 12]: 5.90 M⁻¹; F.E. [4, 12]: 20.78; Ka [4, 12]: 69.25 M⁻¹
CCN(CC)c1ccc2c(-c3cc4ccccc4s3)c(C=O)c(=O)oc2c1 [II-5]	–	–	–	–	–	–	F.E. [2, 12]: 9.53; Ka [2, 12]: 49.26 M⁻¹; F.E. [3, 12]: 29.65; Ka [3, 12]: 5.25 M⁻¹; F.E. [4, 12]: 16.62; Ka [4, 12]: 49.65 M⁻¹
CCN(CC)c1ccc2c(-c3ccccc3C(=O)O)c3ccc(=[N+](CC)CC)cc-3oc2c1.[Cl-] [rhodamine B]	–	–	–	–	–	–	absolute Φfl [8]: 0.31
